Experimental findings from PMC10824666 (Nature Cancer, 2023) are described below.

This assay concerns the target T1, PKA alpha (Homo sapiens, UniProt P17612).
T1 construct: gene PRKACA
The assay is described as follows: biochemical. Details: Eurofins DiscoverX kinase panel, competitive binding assay at 1 uM, percent of DMSO control. The conditions noted are these: read-out: Kinome Profiling performed by Eurofins DiscoverX / AM-5308, 1.0 µM / POC; competitive binding, percent of DMSO control. Summed up:
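Single-point profiling at 1 µM compound in a competition-binding format against 96 kinases, read out as POC relative to control; n = 1.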

On to `C[C@@H]1CN(c2cccc(NC(=O)c3ccc(NS(=O)(=O)CCO)cc3N3CCC4(CC3)CC4)n2)CCO1` [AM-5308], for which the remaining activity at 1 µM worked out at 100%.
